Laboratory results published in patent publication US20220213063A1, “N-[l-(5-BROMO-2-PYRIMIDIN-2-YL-1,2,4-TRIAZOL-3-YL)ETHYL]-2-CYCLOPROPYL-6-(TRIFLUOROMETHYL)PYRIDINE-4-CARBOXAMIDE DERIVATIVES AND RELATED COMPOUNDS AS INSECTICIDES” (SYNGENTA CROP PROTECTION AG, priority 2019, published 2022).

Assays:
Assay type in all cases: in vivo
[1] = test system: Chilo suppressalis (Striped Rice Stemborer); experiment: Example B4: Chilo suppressalis (striped rice stemborer), artificial diet; settings: 144 h, application rate of 200 ppm, L2 larvae, 6 days after infestation, in comparison to untreated samples, read-out: control in at least one of the three categories (mortality, anti-feedant or growth inhibition)
Procedure: Example B4: Chilo suppressalis (Striped Rice Stemborer)
24-well microtiter plates with artificial diet were treated with aqueous test solutions prepared from 10'000 ppm DMSO stock solutions by pipetting. After drying, the plates were infested with L2 larvae (6-8 per well). The samples were assessed for mortality, anti-feeding effect, and growth inhibition in comparison to untreated samples 6 days after infestation. Control of Chilo suppressalis by a test sample is given when at least one of the categories mortality, anti-feedant effect, and growth inhibition is higher than the untreated sample.

[2] = test system: Spodoptera littoralis (Egyptian Cotton Leaf Worm); experiment: Example B9: Spodoptera littoralis (Egyptian cotton leaf worm), sprayed cotton leaf discs; settings: foliar, 72 h, application rate of 200 ppm, L1 larvae, 3 days after infestation, in comparison to untreated samples, read-out: control in at least one of the three categories (mortality, anti-feedant effect, or growth inhibition)
Procedure: Example B9: Spodoptera littoralis (Egyptian Cotton Leaf Worm)
Cotton leaf discs were placed onto agar in 24-well microtiter plates and sprayed with aqueous test solutions prepared from 10'000 ppm DMSO stock solutions. After drying the leaf discs were infested with five L1 larvae. The samples were assessed for mortality, anti-feeding effect, and growth inhibition in comparison to untreated samples 3 days after infestation. Control of Spodoptera littoralis by a test sample is given when at least one of the categories mortality, anti-feedant effect, and growth inhibition is higher than the untreated sample.

[3] = test system: Diabrotica Balteata (Corn Root Worm); experiment: Example B1: Diabrotica balteata (corn root worm), sprayed maize sprouts; settings: 96 h, application rate of 200 ppm, L2 larvae, 4 days after infestation, in comparison to untreated samples, read-out: control in at least one of the two categories (mortality or growth inhibition)
Procedure: Example B1: Diabrotica Balteata (Corn Root Worm)
Maize sprouts placed onto an agar layer in 24-well microtiter plates were treated with aqueous test solutions prepared from 10'000 ppm DMSO stock solutions by spraying. After drying, the plates were infested with L2 larvae (6 to 10 per well). The samples were assessed for mortality and growth inhibition in comparison to untreated samples 4 days after infestation.
The following compounds gave an effect of at least 80% control in at least one of the two categories (mortality or growth inhibition) at an application rate of 200 ppm: […]

[4] = test system: Plutella xylostella (Diamond Back Moth); experiment: Example B5: Plutella xylostella (diamond back moth), artificial diet; settings: 192 h, application rate of 200 ppm, eggs, 8 days after infestation, in comparison to untreated samples, read-out: effect in at least one of the two categories (mortality or growth inhibition)
Procedure: Example B5: Plutella xylostella (Diamond Back Moth)
24-well microtiter plates with artificial diet were treated with aqueous test solutions prepared from 10'000 ppm DMSO stock solutions by pipetting. After drying, Plutella eggs were pipetted through a plastic stencil onto a gel blotting paper and the plate was closed with it. The samples were assessed for mortality and growth inhibition in comparison to untreated samples 8 days after infestation.
The following compounds gave an effect of at least 80% in at least one of the two categories (mortality or growth inhibition) at an application rate of 200 ppm: […]

[5] = test system: Myzus persicae (Green Peach Aphid); experiment: Example B8: Myzus persicae (green peach aphid), intrinsic activity; settings: 120 h, test rate of 12 ppm, mixed with sucrose solution, 5 days after infestation
From the text: Example B8: Myzus persicae (Green Peach Aphid): Intrinsic Activity
Test compounds prepared from 10'000 ppm DMSO stock solutions were applied by pipette into 24-well microtiter plates and mixed with sucrose solution. The plates were closed with a stretched Parafilm. A plastic stencil with 24 holes was placed onto the plate and infested pea seedlings were placed directly on the Parafilm. The infested plate was closed with a gel blotting paper and another plastic stencil and then turned upside down. The samples were assessed for mortality 5 days after infestation.

[6] = test system: Frankliniella occidentalis (Western Flower Thrips); experiment: Example B3: Frankliniella occidentalis (western flower thrips), feeding/contact activity; settings: 168 h, application rate of 200 ppm, population of mixed ages, 7 days after infestation
Procedure: Example B3: Frankliniella occidentalis (Western Flower Thrips):Feeding/Contact Activity
Sunflower leaf discs were placed on agar in 24-well microtiter plates and sprayed with aqueous test solutions prepared from 10'000 DMSO stock solutions. After drying the leaf discs were infested with a Frankliniella population of mixed ages. The samples were assessed for mortality 7 days after infestation.

CC(NC(=O)c1cc(C(F)(F)F)nc(C2(C#N)CC2)c1)c1nc(Br)nn1-c1ccc(F)cn1 (stereo not shown) [Compound P1, N-[1-[5-bromo-2-(5-fluoro-2-pyridyl)-1,2,4-triazol-3-yl]ethyl]-2-(1-cyanocyclopropyl)-6-(trifluoromethyl)pyridine-4-carboxamide]
≥ 80%: percent control (mortality, anti-feedant effect or growth inhibition) at 200 ppm [1] | percent control (mortality, anti-feedant effect or growth inhibition) at 200 ppm [2] | percent control (mortality or growth inhibition) at 200 ppm [3] | percent effect (mortality or growth inhibition) at 200 ppm [4]

CC(NC(=O)c1cc(C(F)(F)F)nc(C2(C#N)CC2)c1)c1nc(Br)nn1-c1ncccn1 (stereo not shown) [Compound P3, N-[1-(5-bromo-2-pyrimidin-2-yl-1,2,4-triazol-3-yl)ethyl]-2-(1-cyanocyclopropyl)-6-(trifluoromethyl)pyridine-4-carboxamide]
≥ 80%: percent control (mortality, anti-feedant effect or growth inhibition) at 200 ppm [1] | mortality at 12 ppm [5] | percent control (mortality, anti-feedant effect or growth inhibition) at 200 ppm [2] | percent control (mortality or growth inhibition) at 200 ppm [3] | percent effect (mortality or growth inhibition) at 200 ppm [4] | mortality at 200 ppm [6]

CC(NC(=O)c1cc(C(F)(F)F)cc(C(F)(F)C2CC2)c1)c1nc(Br)nn1-c1ncccn1 (stereo not shown) [Compound P4, N-[1-(5-bromo-2-pyrimidin-2-yl-1,2,4-triazol-3-yl)ethyl]-3-[cyclopropyl(difluoro)methyl]-5-(trifluoromethyl)benzamide]
≥ 80%: percent control (mortality, anti-feedant effect or growth inhibition) at 200 ppm [1] | percent control (mortality, anti-feedant effect or growth inhibition) at 200 ppm [2] | percent control (mortality or growth inhibition) at 200 ppm [3] | percent effect (mortality or growth inhibition) at 200 ppm [4]

CC(NC(=O)c1cc(C2CC2)nc(C(F)(F)F)c1)c1nc(Br)nn1-c1ncccn1 (stereo not shown) [Compound P5, N-[1-(5-bromo-2-pyrimidin-2-yl-1,2,4-triazol-3-yl)ethyl]-2-cyclopropyl-6-(trifluoromethyl)pyridine-4-carboxamide]
≥ 80%: percent control (mortality, anti-feedant effect or growth inhibition) at 200 ppm [1] | percent control (mortality, anti-feedant effect or growth inhibition) at 200 ppm [2] | percent control (mortality or growth inhibition) at 200 ppm [3] | percent effect (mortality or growth inhibition) at 200 ppm [4]

CC(NC(=O)c1cc(C2CC2)cc(C(F)(F)F)c1)c1nc(Br)nn1-c1ncccn1 (stereo not shown) [Compound P6, N-[1-(5-bromo-2-pyrimidin-2-yl-1,2,4-triazol-3-yl)ethyl]-3-cyclopropyl-5-(trifluoromethyl)benzamide]
≥ 80%: percent control (mortality, anti-feedant effect or growth inhibition) at 200 ppm [1] | percent control (mortality, anti-feedant effect or growth inhibition) at 200 ppm [2] | percent control (mortality or growth inhibition) at 200 ppm [3] | percent effect (mortality or growth inhibition) at 200 ppm [4]

CC(NC(=O)c1cc(C2CC2C(F)(F)F)cc(C(F)(F)F)c1)c1nc(Br)nn1-c1ncccn1 (stereo not shown) [Compound P7, N-[1-(5-bromo-2-pyrimidin-2-yl-1,2,4-triazol-3-yl)ethyl]-3-(trifluoromethyl)-5-[2-(trifluoromethyl)cyclopropyl]benzamide]
≥ 80%: percent control (mortality, anti-feedant effect or growth inhibition) at 200 ppm [1] | percent control (mortality, anti-feedant effect or growth inhibition) at 200 ppm [2] | percent control (mortality or growth inhibition) at 200 ppm [3] | percent effect (mortality or growth inhibition) at 200 ppm [4]

CC(NC(=O)c1cc(C2CC2)cc(C(F)(F)F)c1)c1nc(Br)nn1-c1ccc(F)cn1 (stereo not shown) [Compound P8, N-[1-[5-bromo-2-(5-fluoro-2-pyridyl)-1,2,4-triazol-3-yl]ethyl]-3-cyclopropyl-5-(trifluoromethyl)benzamide]
≥ 80%: percent control (mortality, anti-feedant effect or growth inhibition) at 200 ppm [1] | percent effect (mortality or growth inhibition) at 200 ppm [4]
